Experimental findings from patent publication US12497396B2, “Nitrogen-containing heterocyclic derivatives, method therefor and application therefor as inhibitors of KRAS G12C for the treatment of cancers” (SHANGHAI HANSOH BIOMEDICAL CO., LTD., priority 2019, dated 2025) are described below.

In one test the target is T1, human KRAS G12C protein (Homo sapiens, UniProt P01116, G12C).
T1 construct: purchased Beijing SinoBiological Co., Ltd. 12259-H07E2
As to the kind of experiment: Thermal shift: melting temperature of KRAS G12C protein. The following applies: for Tm (° C.): KRAS G12C protein 5.37 μM with compound 10 μM, 1 hour incubation; for ΔTm at 10 µM / ΔTm (° C.): compound 10 μM, Tm minus Tm of DMSO solvent control. It is filed as binding. The procedure: A solution containing […] (pH 7.5), 1 mM DTT, 5×SYPRO Orange and 150 mM NaCl was prepared as the experimental buffer, and a final concentration of 5.37 μM human KRAS G12C protein was added thereto. […] After incubating at room temperature in the dark for 1 hour, the PCR tube was put into the PCR instrument, QuantStudio Software v1.3 was opened, and the melting temperature of KRAS G12C protein in different treatment groups was detected by melt curve function (heating from 25° C. to 95° C., 0.03° C./s). The experimental data file of PCR instrument was imported into thermal shift software, and the melting temperature (Tm) of each treatment group was obtained, and the change value of melting temperature (Δ Tm) was obtained by subtracting the Tm of DMSO solvent control group.

The test system of test [1] is NCI-H358 cells (KRAS G12C mutant cell line). The experiment in a line: Inhibition of NCI-H358 cell proliferation (CellTiter-Glo, 72 h). It is filed as cell-based, human. The text has this: (§1) As a preferred embodiment of the present disclosure, the detection method of NCI-H358 cell proliferation inhibitory activity and Mia PaCa-2 cell proliferation inhibitory activity is as follows: through cell culture, adding different concentrations of compound solutions to the cultured cells, continuing the culture for a period of time and measuring the cell proliferation; • further, the method of cell culture is: adjusting the cells to a suitable cell concentration with complete medium and spreading the cell suspension in well plates for culture; preferably, the culture conditions are 37° C., 5% CO2 incubator overnight; preferably, the cell suspension is spread in 96-well plates, 48-well plates, 24-well plates, 12-well plates or 6-well plates, more preferably 96-well plates; preferably, the suitable cell concentration is 1500-4000 cells/well, with 90 μL of cell suspension added to each well; • further, the compound solution is prepared with DMSO and may be further diluted with medium; preferably, the compound solution has a concentration gradient starting from 100 μM at 4-fold dilution, more preferably starting from 30 μM at 4-fold dilution, most preferably starting from 10 μM at 4-fold dilution; • further, the volume of the compound solution or solvent added to each well is 1-10 μL, preferably 10 μL; • further, after adding the compound solution, the conditions for continuing the culture are 37° C., 5% CO2 incubator; preferably, the culture time is 24-72 h, more preferably 72 h; • further, the method for measuring cell proliferation is MTT, CCK8, CellTiter-Glo; preferably the method is CellTiter-Glo; • further, the cell proliferation is read using a microplate reader, more preferably a BioTek Synergy H1 microplate reader.
(§2) When NCI-H358 or Mia PaCa-2 cells were cultured to the appropriate fusion level, the NCI-H358 or Mia PaCa-2 cells were collected, and the cells were adjusted to the appropriate cell concentration using a complete medium, and the cell suspension was spread in a 96-well plate, 90 μL per well, and placed in a 37° C., 5% CO2 incubator overnight; and compound solutions of different concentrations were prepared using DMSO and culture medium; and a solvent control was set, the compound solution was added to a 96-well plate, 10 μL per well, at 37° C. in a 5% CO2 incubator for 72 hours; CellTiter-Glo solution was added thereto and the mixture was mixed well by shaking, incubated for 10 min in the dark, and read by BioTek Synergy H1 microplate reader.
(§3) The luminescence signal values were used to calculate the inhibition rate, the concentration and the inhibition rate were fitted to a nonlinear regression curve using Graphpad Prism software, then the IC50 value was obtained.

The test system of test [2] is Mia PaCa-2 cells (KRAS G12C mutant cell line). The experiment in a line: Inhibition of Mia PaCa-2 cell proliferation (CellTiter-Glo, 72 h). In kind it is cell-based, human.
Description: as §1, §2, §3
(Cellular ATP, detected with luciferase, serves as a proxy for viable cell number.)

Read-outs that look alike come from different tables or passages of the source.

What is called ΔTm is the shift of the melting midpoint relative to a reference. One may read the IC50 as the concentration at which inhibition is half-maximal.

Take `C=CC(=O)N1CCN(c2nc(=O)n(-c3c(SC)ccnc3C(C)C)c3nc(-c4c(O)cccc4F)c(F)cc23)[C@@H](C)C1` [Embodiment 60, 4-((S)-4-acryloyl-2-methylpiperazin-1-yl)-6-fluoro-7-(2-fluoro-6-hydroxyphenyl)-1-(2-isopropyl-4-(methylthio)pyridin-3-yl)pyrido[2,3-d]pyrimidin-2(1H)-one]: on human KRAS G12C protein, the “Tm (° C.)” value was found to be 60.2 °C and the ΔTm at 10 µM worked out at 11.6 °C. Besides, the IC50 in test [1] (Homo sapiens) was determined as 40 nM. Besides, the IC50 in test [2] (Homo sapiens) came out at 60 nM.

Regarding `C=CC(=O)N1CCN(c2nc(=O)n(-c3c(C)ccnc3C(C)C)c3nc(-c4c(F)cccc4SC)c(F)cc23)[C@@H](C)C1` [Embodiment 75, (S)-4-(4-acryloyl-2-methylpiperazin-1-yl)-6-fluoro-7-(2-fluoro-6-(methylthio)phenyl)-1-(2-isopropyl-4-methylpyridin-3-yl) pyrido[2,3-d]pyrimidin-2 (1H)-one], on human KRAS G12C protein, the “Tm (° C.)” value worked out at 61.2 °C and the ΔTm at 10 µM was 10.6 °C. Besides, the half-inhibitory concentration (IC50) in test [1] (Homo sapiens) amounted to 24 nM. Also, the 50% inhibitory concentration (IC50) in test [2] (Homo sapiens) stood at 34 nM.

Regarding `C=CC(=O)N1CCN(c2nc(=O)n(-c3c(C)ccnc3C(C)C)c3nc(-c4c(F)cccc4S(C)(=O)=O)c(F)cc23)[C@@H](C)C1` [Embodiment 77, (S)-4-(4-acryloyl-2-methylpiperazin-1-yl)-6-fluoro-1-(2-isopropyl-4-methylpyridin-3-yl)-7-(2-(methylsulfonyl-6-fluoro)phenyl) pyrido [2,3-d] pyrimidin-2 (1H)-one], the “Tm (° C.)” value on human KRAS G12C protein is 60.4 °C. Also, the ΔTm at 10 µM at human KRAS G12C protein was determined as 9.8 °C. The results for the IC50 in test [1] (Homo sapiens) and in test [2] (Homo sapiens) were 117 nM and 120 nM, respectively.

For the molecule `C=CC(=O)N1CCN(c2nc(=O)n(-c3c(C)ccnc3CC(C)C)c3nc(-c4c(F)cccc4SCC)c(F)cc23)[C@@H](C)C1` [Embodiment 118], on human KRAS G12C protein, the “Tm (° C.)” value was determined as 59.0 °C and the “ΔTm (° C.)” value worked out at 8.4 °C. In test [1], the 50% inhibitory concentration (IC50) came to 89 nM. For the same molecule, in test [2], the IC50 worked out at 82 nM.

`C=CC(=O)N1CCN(c2nc(=O)n(-c3c(SC)ccnc3C(C)C)c3nc(-c4c(O)cccc4F)c(Cl)cc23)[C@@H](C)C1` [Embodiment 130]: on human KRAS G12C protein, the “Tm (° C.)” value amounted to 61.5 °C and the “ΔTm (° C.)” value turned out to be 10.9 °C. For the same molecule, the concentration for half-maximal inhibition (IC50) in test [1] came out at 14 nM. Also, the half-maximal inhibitory concentration (IC50) in test [2] stood at 41 nM.

On to `C=CC(=O)N1CCN(c2nc(=O)n(-c3c(SC)ccnc3C(C)C)c3nc(-c4c(F)cccc4SC)c(F)cc23)[C@@H](C)C1` [Embodiment 131], for which, at human KRAS G12C protein, the “Tm (° C.)” value was 61.2 °C and the “ΔTm (° C.)” value was determined as 11.7 °C. In addition, the IC50 in test [1] was determined as 48 nM. In test [2], the concentration for half-maximal inhibition (IC50) was determined as 47 nM.

On to `C=CC(=O)N1CCN(c2nc(=O)n(-c3c(S(C)(=O)=O)ccnc3C(C)C)c3nc(-c4c(O)cccc4F)c(F)cc23)[C@@H](C)C1` [Embodiment 133, 4-((S)-4-acryloyl-2-methylpiperazin-1-yl)-6-fluoro-7-(2-fluoro-6-hydroxyphenyl)-1-(2-isopropyl-4-(methylsulfonyl)pyridin-3-yl) pyrido [2,3-d] pyrimidin-2 (1H)-one], for which the IC50 in test [1] (Homo sapiens) is 25 nM; in test [2] (Homo sapiens) it was 46 nM.

For the molecule `C=CC(=O)N1CCN(c2nc(=O)n(-c3c(C)ccnc3C(C)C)c3nc(-c4ccccc4SC)c(F)cc23)[C@@H](C)C1` [Embodiment 138], on human KRAS G12C protein, the “Tm (° C.)” value is 59.4 °C and the “ΔTm (° C.)” value was determined as 8.8 °C. Moreover, the IC50 in test [1] amounted to 67 nM. In addition, the half-inhibitory concentration (IC50) in test [2] was 104 nM.

`C=CC(=O)N1CCN(c2nc(=O)n(-c3c(SC)ccnc3C(C)C)c3nc(-c4c(N)ccc(Cl)c4F)c(Cl)cc23)[C@@H](C)C1` [Embodiment 150, 4-((S)-4-acryloyl-2-methylpiperazin-1-yl)-7-(6-amino-3-chloro-2-fluorophenyl)-6-chloro-1-(2-isopropyl-4-(methylthio)pyridin-3-yl) pyrido [2,3-d] pyrimidin-2 (1H)-one]: on human KRAS G12C protein, the “Tm (° C.)” value amounted to 60.2 °C. The ΔTm at 10 µM at human KRAS G12C protein was 13.4 °C. The values for the concentration for half-maximal inhibition (IC50) in test [1] (Homo sapiens) and in test [2] (Homo sapiens) were 5.4 nM and 8.6 nM, respectively.

Take `C=CC(=O)N1CCN(c2nc(=O)n(-c3c(SC)ccnc3C(C)C)c3nc(-c4c(N)ccc(Cl)c4F)c(F)cc23)[C@@H](C)C1` [Embodiment 151, 4-((S)-4-acryloyl-2-methylpiperazin-1-yl)-7-(6-amino-3-chloro-2-fluorophenyl)-6-fluoro-1-(2-isopropyl-4-(methylthio)pyridin-3-yl)pyrido[2,3-d]pyrimidin-2(1H)-one]: the concentration for half-maximal inhibition (IC50) in test [1] (Homo sapiens) stood at 39 nM; in test [2] (Homo sapiens), 59 nM.

For the molecule `C=CC(=O)N1CCN(c2nc(=O)n(-c3c(SC)ccnc3C(C)C)c3nc(-c4c(O)ccc(F)c4F)c(F)cc23)[C@@H](C)C1` [Embodiment 153, 4-((S)-4-acryloyl-2-methylpiperazin-1-yl)-7-(2,3-difluoro-6-hydroxyphenyl)-6-fluoro-1-(2-isopropyl-4-(methylthio)pyridin-3-yl) pyrido [2,3-d] pyrimidin-2 (1H)-one], the half-inhibitory concentration (IC50) came to 68 nM in test [1] (Homo sapiens) and 76 nM in test [2] (Homo sapiens).

For the molecule `C=CC(=O)N1CCN(c2nc(=O)n(-c3c(SC)ccnc3C(C)C)c3nc(-c4c(F)cccc4F)c(F)cc23)[C@@H](C)C1` [Embodiment 154, (S)-4-(4-acryloyl-2-methylpiperazin-1-yl)-7-(2,6-difluorophenyl)-6-fluoro-1-(2-isopropyl-4-(methylthio)pyridin-3-yl)pyrido[2,3-d]pyrimidin-2(1H)-one], the half-maximal inhibitory concentration (IC50) was found to be 79 nM in test [1] (Homo sapiens) and 68 nM in test [2] (Homo sapiens).

Regarding `C=CC(=O)N1C[C@H](C)N(c2nc(=O)n(-c3c(SC)ccnc3C(C)C)c3nc(-c4c(O)cccc4F)c(Cl)cc23)C[C@H]1C` [Embodiment 166, 4-((2S, 5R)-4-acryloyl-2,5-dimethylpiperazin-1-yl)-6-chloro-7-(2-fluoro-6-hydroxyphenyl)-1-(2-isopropyl-4-(methylthio)pyridin-3-yl) pyrido [2,3-d] pyrimidin-2 (1H)-one], the IC50 in test [1] (Homo sapiens) turned out to be 16 nM; in test [2] (Homo sapiens), 23 nM.

In the case of `C=CC(=O)N1CCN(c2nc(=O)n(-c3c(SC)ccnc3C(C)C)c3nc(-c4c(F)cccc4F)c(F)cc23)[C@@H](C)C1` [Embodiment 169, (S)-4-(4-acryloyl-2-methylpiperazin-1-yl)-7-(2,6-difluorophenyl)-6-fluoro-1-(2-isopropyl-4-(methylthio)pyridin-3-yl) pyrido [2,3-d] pyrimidin-2 (1H)-one], the 50% inhibitory concentration (IC50) in test [1] amounted to 79 nM; in test [2] it was 68 nM.

For the molecule `C=CC(=O)N1CCN(c2nc(=O)n(-c3c(SC)ccnc3C(C)C)c3nc(-c4c(N)c(Cl)cc(Cl)c4F)c(Cl)cc23)[C@@H](C)C1` [Embodiment 191, 4-((s)-4-acryloyl-2-methylpiperazine-1-yl)-7-(2-amino-3,5-dichloro-6-fluorophenyl)-6-chloro-1-(2-isopropyl-4-(methylthio)pyridin-3-yl) pyrido [2,3-d] pyrimidin-2 (1H)-one], the values for the IC50 in test [1] (Homo sapiens) and in test [2] (Homo sapiens) were 32 nM and 16 nM, respectively.

On to `C=CC(=O)N1CCN(c2nc(=O)n(-c3c([S+](C)[O-])ccnc3C(C)C)c3nc(-c4c(N)c(Cl)cc(Cl)c4F)c(Cl)cc23)[C@@H](C)C1` (stereo partly drawn) [Embodiment 192, 4-((S)-4-acryloyl-2-methylpiperazin-1-yl)-7-(2-amino-3,5-dichloro-6-fluorophenyl)-6-chloro-1-(2-isopropyl-4-(methylsulfinyl)pyridin-3-yl) pyrido [2,3-d] pyrimidin-2 (1H)-one], for which the IC50 in test [1] (Homo sapiens) came to 29 nM; in test [2] (Homo sapiens), 13 nM.
